Data as given in patent US10377753B2, “Substituted 4-azaindoles and their use as GluN2B receptor modulators” (Janssen Pharmaceutica NV, priority 2015, dated 2019).

Target: cloned human NR1/NR2B ion channels (Homo sapiens (Human), UniProt Q05586+Q13224)
Assay: HNR2BC: effects of test articles on cloned human NR1/NR2B ion channels expressed in mammalian cells (FLIPR calcium flux)
Type: cell-based
Details: cloned human NR1/NR2B ion channels, Table 5
Summary of the method: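 In a stable Tet-On-induced cell line expressing human GluN1/GluN2B, Calcium 5-loaded cells were preincubated 5 min with compound, then stimulated 5 min with glutamate at ~EC80 plus 10 μM glycine, in pH 7.4 HEPES buffer. FLIPR calcium fluorescence was normalized to control wells.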

Sequence of cloned human NR1/NR2B ion channels (Q13224 27-1484, other chains not shown): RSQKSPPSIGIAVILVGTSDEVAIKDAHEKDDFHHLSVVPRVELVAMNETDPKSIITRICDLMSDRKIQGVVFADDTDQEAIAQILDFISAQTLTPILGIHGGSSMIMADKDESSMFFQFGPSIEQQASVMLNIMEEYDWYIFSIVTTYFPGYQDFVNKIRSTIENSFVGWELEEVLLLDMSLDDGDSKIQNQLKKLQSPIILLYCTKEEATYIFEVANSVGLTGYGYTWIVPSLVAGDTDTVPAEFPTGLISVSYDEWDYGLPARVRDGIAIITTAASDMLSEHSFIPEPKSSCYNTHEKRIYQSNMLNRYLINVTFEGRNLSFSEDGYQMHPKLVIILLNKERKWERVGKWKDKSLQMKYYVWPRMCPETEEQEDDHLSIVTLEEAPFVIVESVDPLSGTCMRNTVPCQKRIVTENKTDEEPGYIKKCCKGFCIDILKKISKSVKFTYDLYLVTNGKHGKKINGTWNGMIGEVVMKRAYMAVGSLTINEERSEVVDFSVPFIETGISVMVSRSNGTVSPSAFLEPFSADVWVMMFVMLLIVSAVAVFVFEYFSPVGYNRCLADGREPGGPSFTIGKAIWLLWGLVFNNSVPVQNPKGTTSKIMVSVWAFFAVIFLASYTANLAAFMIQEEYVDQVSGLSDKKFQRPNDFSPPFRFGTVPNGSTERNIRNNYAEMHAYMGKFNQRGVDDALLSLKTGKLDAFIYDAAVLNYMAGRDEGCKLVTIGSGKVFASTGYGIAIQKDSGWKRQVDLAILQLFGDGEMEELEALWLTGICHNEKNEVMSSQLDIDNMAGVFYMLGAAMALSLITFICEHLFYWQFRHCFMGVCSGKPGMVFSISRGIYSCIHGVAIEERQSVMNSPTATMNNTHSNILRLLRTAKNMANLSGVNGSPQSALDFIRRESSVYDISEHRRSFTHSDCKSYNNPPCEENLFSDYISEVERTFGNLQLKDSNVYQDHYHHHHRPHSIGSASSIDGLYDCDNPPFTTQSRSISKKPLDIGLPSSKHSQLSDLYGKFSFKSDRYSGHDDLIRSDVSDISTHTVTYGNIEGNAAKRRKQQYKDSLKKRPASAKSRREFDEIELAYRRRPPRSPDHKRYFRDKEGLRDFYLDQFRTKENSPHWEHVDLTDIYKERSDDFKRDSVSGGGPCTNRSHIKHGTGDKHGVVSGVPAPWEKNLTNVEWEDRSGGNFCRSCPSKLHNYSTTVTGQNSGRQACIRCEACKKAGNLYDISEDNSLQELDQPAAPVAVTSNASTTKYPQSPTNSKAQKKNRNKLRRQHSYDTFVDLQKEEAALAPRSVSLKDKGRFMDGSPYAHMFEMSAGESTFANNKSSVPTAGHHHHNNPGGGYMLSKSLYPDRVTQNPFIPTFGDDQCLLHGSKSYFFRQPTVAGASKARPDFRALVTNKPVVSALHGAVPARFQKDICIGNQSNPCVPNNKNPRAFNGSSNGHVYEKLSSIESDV

SMILES	IC50
Cc1cn(CC(=O)N(C)C)c2cc(-c3ccc(F)c(F)c3F)cnc12 [Example 583, N,N-Dimethyl-2-[3-methyl-6-(2,3,4-trifluorophenyl)pyrrolo[3,2-b]pyridin-1-yl]acetamide]	126 nM
Cc1cn(CC(=O)N2CC(F)C2)c2cc(-c3ccc(F)c(F)c3F)cnc12 [Example 588, 1-(3-Fluoroazetidin-1-yl)-2-[3-methyl-6-(2,3,4-trifluorophenyl)pyrrolo[3,2-b]pyridin-1-yl]ethanone]	631 nM
Cc1cn(CC(=O)N2CCCC2)c2cc(-c3cccc(C(F)(F)F)c3F)cnc12 [Example 590, 2-[6-[2-Fluoro-3-(trifluoromethyl)phenyl]-3-methyl-pyrrolo[3,2-b]pyridin-1-yl]-1-pyrrolidin-1-yl-ethanone]	316 nM
Cc1cn(CC(=O)N(C)C)c2cc(-c3ccccc3F)cnc12 [Example 593, 2-[6-(2-Fluorophenyl)-3-methyl-pyrrolo[3,2-b]pyridin-1-yl]-N,N-dimethyl-acetamide]	251 nM
Cc1cn(CC(=O)N2CC(F)(F)C2)c2cc(-c3cccc(C(F)(F)F)c3F)cnc12 [Example 595, 1-(3,3-Difluoroazetidin-1-yl)-2-[6-[2-fluoro-3-(trifluoromethyl)phenyl]-3-methyl-pyrrolo[3,2-b]pyridin-1-yl]ethanone]	251 nM
Cc1cn(CC(=O)N2CC(F)(F)C2)c2cc(-c3ccccc3F)cnc12 [Example 597, 1-(3,3-Difluoroazetidin-1-yl)-2-[6-(2-fluorophenyl)-3-methyl-pyrrolo[3,2-b]pyridin-1-yl]ethanone]	316 nM
Cc1cn(CC(=O)N2CC(F)C2)c2cc(-c3cc(F)c(F)c(F)c3)cnc12 [Example 598, 1-(3-Fluoroazetidin-1-yl)-2-[3-methyl-6-(3,4,5-trifluorophenyl)pyrrolo[3,2-b]pyridin-1-yl]ethanone]	39.8 nM
CN(C)C(=O)Cn1cc(Cl)c2ncc(-c3cccc(C(F)(F)F)c3)cc21 [Example 600, 2-[3-Chloro-6-[3-(trifluoromethyl)phenyl]pyrrolo[3,2-b]pyridin-1-yl]-N,N-dimethyl-acetamide]	79.4 nM
Cc1cc(-c2cnc3c(Cl)cn(CC(=O)N(C)C)c3c2)sc1Cl [Example 602, 2-[3-Chloro-6-(5-chloro-4-methyl-2-thienyl)pyrrolo[3,2-b]pyridin-1-yl]-N,N-dimethyl-acetamide]	10 nM
CN(C)C(=O)Cn1cc(F)c2ncc(-c3ccc(F)c(C(F)(F)F)c3)cc21 [Example 605, 2-[3-Fluoro-6-[4-fluoro-3-(trifluoromethyl)phenyl]pyrrolo[3,2-b]pyridin-1-yl]-N,N-dimethyl-acetamide]	63.1 nM
CN(C)C(=O)Cn1cc(F)c2ncc(-c3cccc(Cl)c3F)cc21 [Example 606, 2-[6-(3-Chloro-2-fluoro-phenyl)-3-fluoro-pyrrolo[3,2-b]pyridin-1-yl]-N,N-dimethyl-acetamide]	63.1 nM
O=C(Cn1cc(F)c2ncc(-c3ccc(F)c(Cl)c3)cc21)N1CC(F)C1 [Example 608, 2-[6-(3-Chloro-4-fluoro-phenyl)-3-fluoro-pyrrolo[3,2-b]pyridin-1-yl]-1-(3-fluoroazetidin-1-yl)ethanone]	20 nM

Continued, values first:

IC50	SMILES
39.8 nM	Cc1cn(CC(=O)N2CCC2)c2cc(-c3ccc(F)c(F)c3F)cnc12 [Example 582, 1-(Azetidin-1-yl)-2-[3-methyl-6-(2,3,4-trifluorophenyl)pyrrolo[3,2-b]pyridin-1-yl]ethanone]
398 nM	CCN(C)C(=O)Cn1cc(C)c2ncc(-c3ccc(F)c(F)c3F)cc21 [Example 584, N-Ethyl-N-methyl-2-[3-methyl-6-(2,3,4-trifluorophenyl)pyrrolo[3,2-b]pyridin-1-yl]acetamide]
251 nM	Cc1cn(CC(=O)N2CCC2)c2cc(-c3cccc(C(F)(F)F)c3F)cnc12 [Example 585, 1-(Azetidin-1-yl)-2-[6-[2-fluoro-3-(trifluoromethyl)phenyl]-3-methyl-pyrrolo[3,2-b]pyridin-1-yl]ethanone]
126 nM	Cc1cn(CC(=O)N(C)C)c2cc(-c3cccc(C(F)(F)F)c3F)cnc12 [Example 586, 2-[6-[2-Fluoro-3-(trifluoromethyl)phenyl]-3-methyl-pyrrolo[3,2-b]pyridin-1-yl]-N,N-dimethyl-acetamide]
251 nM	CCN(C)C(=O)Cn1cc(C)c2ncc(-c3cccc(C(F)(F)F)c3F)cc21 [Example 587, N-Ethyl-2-[6-[2-fluoro-3-(trifluoromethyl)phenyl]-3-methyl-pyrrolo[3,2-b]pyridin-1-yl]-N-methyl-acetamide]
126 nM	Cc1cn(CC(=O)N2CC(F)C2)c2cc(-c3cccc(C(F)(F)F)c3F)cnc12 [Example 589, 1-(3-Fluoroazetidin-1-yl)-2-[6-[2-fluoro-3-(trifluoromethyl)phenyl]-3-methyl-pyrrolo[3,2-b]pyridin-1-yl]ethanone]
126 nM	Cc1cn(CC(=O)N2CCCC2)c2cc(-c3ccc(F)c(F)c3F)cnc12 [Example 591, 2-[3-Methyl-6-(2,3,4-trifluorophenyl)pyrrolo[3,2-b]pyridin-1-yl]-1-pyrrolidin-1-yl-ethanone]
126 nM	Cc1cn(CC(=O)N2CCC2)c2cc(-c3ccccc3F)cnc12 [Example 592, 1-(Azetidin-1-yl)-2-[6-(2-fluorophenyl)-3-methyl-pyrrolo[3,2-b]pyridin-1-yl]ethanone]
794 nM	CCN(C)C(=O)Cn1cc(C)c2ncc(-c3ccccc3F)cc21 [Example 594, N-Ethyl-2-[6-(2-fluorophenyl)-3-methyl-pyrrolo[3,2-b]pyridin-1-yl]-N-methyl-acetamide]
50.1 nM	Cc1cn(CC(=O)N2CC(F)(F)C2)c2cc(-c3ccc(F)c(F)c3F)cnc12 [Example 596, 1-(3,3-Difluoroazetidin-1-yl)-2-[3-methyl-6-(2,3,4-trifluorophenyl)pyrrolo[3,2-b]pyridin-1-yl]ethanone]
100 nM	Cc1cc(-c2cnc3c(Cl)cn(CC(=O)N(C)C)c3c2)c(C)s1 [Example 599, 2-[3-Chloro-6-(2,5-dimethyl-3-thienyl)pyrrolo[3,2-b]pyridin-1-yl]-N,N-dimethyl-acetamide]
126 nM	CN(C)C(=O)Cn1cc(Cl)c2ncc(-c3cccc(C(F)(F)F)n3)cc21 [Example 601, 2-[3-Chloro-6-[6-(trifluoromethyl)-2-pyridyl]pyrrolo[3,2-b]pyridin-1-yl]-N,N-dimethyl-acetamide]
63.1 nM	CN(C)C(=O)Cn1cc(Cl)c2ncc(-c3ccc(C(F)(F)F)s3)cc21 [Example 603, 2-[3-Chloro-6-[5-(trifluoromethyl)-2-thienyl]pyrrolo[3,2-b]pyridin-1-yl]-N,N-dimethyl-acetamide]
200 nM	CN(C)C(=O)Cn1ccc2ncc(-c3cc4ccccc4s3)cc21 [Example 604, 2-[6-(Benzothiophen-2-yl)pyrrolo[3,2-b]pyridin-1-yl]-N,N-dimethyl-acetamide]
39.8 nM	Cc1cccc(-c2cnc3c(F)cn(CC(=O)N4CC(F)C4)c3c2)c1 [Example 607, 1-(3-Fluoroazetidin-1-yl)-2-[3-fluoro-6-(m-tolyl)pyrrolo[3,2-b]pyridin-1-yl]ethanone]
10 nM	CN(C)C(=O)Cn1cc(C(F)(F)F)c2ncc(-c3cc(F)cc(F)c3)cc21 [Example 611, 2-[6-(3,5-Difluorophenyl)-3-(trifluoromethyl)pyrrolo[3,2-b]pyridin-1-yl]-N,N-dimethyl-acetamide]
